According to patent US5422351A, “Bis-benzo or benzopyrido cyclohepta piperidene, piperidylidene and piperazine compounds, compositions and methods of use” (Schering Corporation, priority 1992, dated 1995):
pIC50: −log10 of the molar value. Read-outs that look alike come from different tables or passages of the source.

Columns and labels:
[1] = tested on: PAF-induced platelet aggregation (human platelet-rich plasma); test: PAF-induced platelet aggregation (in vitro); assay type: cell-based; conditions: PAF 1-5×10^-8 M, read-out: PAF Antagonism (in vitro) IC50
Protocol: Platelet-activating factor (PAF) causes aggregation of platelets by a receptor-mediated mechanism. Therefore, PAF-induced platelet aggregation provides a simple and convenient assay to screen compounds for PAF antagonism.
Blood was centrifuged at 110× g for 15 min. and the supernatant platelet-rich plasma (PRP) carefully transferred into a polypropylene tube. Platelet-poor-plasma (PPP) was prepared by centrifuging PRP at 12,000× g for 2 min. (Beckman Microfuge B). PRP was used within 3 hr. of drawing the blood.
PAF was dissolved in chloroform:methanol (1:1, v/v) at a concentration of 2 mg/ml and stored at -70° C. An aliquot of this solution was transferred to a polypropylene tube and dried under a flow of nitrogen gas. […] This stock solution was further diluted to appropriate concentrations in Hepes-saline-BSA buffer. Collagen (Sigma) and adenosine diphosphate (ADP) (Sigma) were purchased as solutions. Test compounds were initially dissolved in dimethyl sulfoxide (DMSO) at a concentration of 50 mM and then further diluted in Hepes-saline-BSA buffer to achieve appropriate concentrations.
When an aggregating agent such as PAF is added to PRP, platelets aggregate. An aggregometer quantifies this aggregation by measuring and comparing light (infra-red) transmission through PPP and PRP. Aggregation assays were performed using a dual-channel aggregometer (Model 440, Chrono-Log Corp., Havertown, Pa.). PRP (0.45 ml) in aggregometer cuvettes was continually stirred (37° C.). […] Incubations were continued until the increase in light transmission reached a maximum (usually 2 min.). This increase in light transmission reflecting platlet aggregation is transmitted to a computer by the Chrono-Log model 810 AGGRO/LINK interface. The AGGRO/LINK calculates the slope of transmission change, thus providing the rate of aggregation. Values for inhibition were calculated by comparing rates of aggregation obtained in the absence and the presence of the compound. For each experiment, a standard PAF antagonist such as 8-chloro-6,11-dihydro-11-(1-acetyl-4-piperidylidene)-5H-benzo[5,6]cyclohepta[1,2-b]pyridine was used as a positive control.
Compounds that inhibit PAF-induced aggregation were tested against several other aggregating agents including collagen (0.2 mg/ml) and ADP (2 μM).

[2] = tested on: Histamine; test: Histamine-induced bronchospasm in guinea pigs; assay type: in vivo, guinea pig (male Hartley); conditions: oral, histamine 10 ug/kg i.v.
Protocol: Male Hartley guinea pigs (450-550 g) were obtained from Charles River Breeding Laboratories. The animals were fasted overnight and the following day were anesthetized with 0.9 ml/kg i.p. of dialurethane (containing 0.1 g/ml diallylbarbituric acid, 0.4 g/ml ethylurea and 0.4 g/ml urethane). The left jugular vein was cannulated for the administration of compounds. The trachea was cannulated and the animals were ventilated by a rodent respirator at 55 strokes/min. with a stroke volume of 4 ml. A side arm to the tracheal cannula was connected to a pressure transducer to obtain a continuous measure of inflation pressure. Bronchoconstriction was measured as the percent increase in inflation pressure that peaked within 5 min. after challenge with spasmogen. […] Each animal was challenged with only a single spasmogen. The effect of a compound on the bronchospasm is expressed as a percent inhibition of the increase in inflation pressure compared to the increase in a control group.

[3] = tested on: PAF; test: PAF-induced bronchospasm in guinea pigs; set-up: species or system guinea pig (male Hartley); conditions: Cavia porcellus, read-out: PAF Agonist Bronchospasm (in Vivo) % Inhibition

| SMILES | pIC50 [1] | inhibition in vivo at 3 mg/kg ([3]; oral, PAF 0.4 μg/kg i.v.) [%] | Histamine Agonist Bronchospasm (in Vivo) % Inhibition ([2]; 1 mg/kg) [%] | also measured |
| --- | --- | --- | --- | --- |
| CCOC(=O)N1CCC(=C2c3ccc(Cl)cc3CCc3cccnc32)CC1 [Compound 1, reference compound] | – | – | > 50 | inhibition in vivo at 10 mg/kg ([3]; po): < 50% |
| CC(=O)N1CCC(=C2c3ccc(Cl)cc3CCc3cccnc32)CC1 [Compound 2, reference compound] | 6.21 | – | – | Histamine Agonist Bronchospasm (in Vivo) % Inhibition ([2]; 3 mg/kg): 49%; inhibition in vivo at 5 mg/kg ([3]; oral, PAF 0.4 μg/kg i.v.): 59% |
| Clc1ccc2c(c1)CCc1cccnc1C2=C1CCN(Cc2ccncc2)CC1 [Compound 3] | 5.14 | 32 | – | – |
| [O-][n+]1ccc(CN2CCC(=C3c4ccc(Cl)cc4CCc4cccnc43)CC2)cc1 [Compound 4] | 5.39 | 35 | 96 | – |
| [O-][n+]1ccc(CN2CCC(=C3c4ccccc4C=Cc4ccccc43)CC2)cc1 [Compound 5] | 5.13 | – | – | inhibition in vivo at 10 mg/kg ([3]; oral, 10 mg/kg, PAF 0.4 μg/kg i.v.): 15% |
| [O-][n+]1ccc(CN2CCC(=C3c4ccccc4CCc4ccccc43)CC2)cc1 [Compound 6] | 5.47 | 0 | – | – |

The next lines start with results.

| pIC50 [1] | SMILES | inhibition in vivo at 3 mg/kg ([3]; oral, PAF 0.4 μg/kg i.v.) [%] | Histamine Agonist Bronchospasm (in Vivo) % Inhibition ([2]; 1 mg/kg) [%] | also measured |
| --- | --- | --- | --- | --- |
| 6.15 | [O-][n+]1ccc(CN2CCN(C3c4ccc(Cl)cc4CCc4cccnc43)CC2)cc1 (racemic) [Compound 7] | 81 | – | Histamine Agonist Bronchospasm (in Vivo) % Inhibition ([2]; 3 mg/kg): 100% |
| 5.77 | [O-][n+]1ccc(CN2CCN(C3c4ccc(Cl)cc4OCc4cccnc43)CC2)cc1 (racemic) [Compound 9] | 22 | – | – |
| 6.00 | [O-][n+]1ccc(CN2CCC(=C3c4ccc(Cl)cc4SCc4cccnc43)CC2)cc1 [Compound 8] | – | 83 | inhibition in vivo at 5 mg/kg ([3]; oral, PAF 0.4 μg/kg i.v.): 67% |
| 5.09 | [O-][n+]1ccc(CN2CCC(=C3c4ccccc4Oc4cccnc43)CC2)cc1 [Compound 10] | – | – | – |
